Data: article PMC3974779, “Pterostilbene-Isothiocyanate Conjugate Suppresses Growth of Prostate Cancer Cells Irrespective of Androgen Receptor Status” (PLoS ONE, 2014)

Experiments:
[1] = system: AR gene expression in LNCaP cells; assay: RT-PCR of AR expression; assay type: cell-based, human; conditions: for reduction of DHT induced AR transcription: 10 nM DHT
Procedure: Total RNA was extracted from the treated cells using RNA isolation kit obtained from Genei (Bangalore, India). The extracted RNA samples were then quantified and equal amount of the individual treatments was transcribed with the help of an RT - PCR kit from Genei (Bangalore, India) according to the manufacturer’s instruction. PCR was performed by denaturing at 94°C for 60 s, annealing at various temperatures (depending on primer pairs used) for 45 s and extension at 72°C for 2 min followed by the number of cycles for amplification. Primers for Bcl-2, Bcl-xL, Bax, AR and β-Actin were designed with the help of Primer 3 software and standardized in the laboratory. The PCR products were then separated on 2% agarose gel and visualized in a gel documentation system (Bio Rad, USA). The intensity of the bands on agarose gels were analyzed using ImageJ 1.43 software (NIH, USA) and normalized with respect to β-actin PCR products. Each of the RT-PCR was carried out three times. Table S1 presents the primer sequence, product size, annealing temperature, and number of cycles used for all primers.

[2] = system: cleaved caspase-3 in PC-3 cells; assay: Akt/ERK siRNA silencing, cleaved caspase-3 immunoblot; assay type: cell-based, human
Procedure: The siRNAs against human Akt and ERK and control siRNA were purchased commercially from Santa Cruz Biotechnology (USA). The LNCaP and PC-3 PCa cells were transfected with siRNAs (at a final concentration of 100 nM) using polyfect transfection reagent (Qiagen, CA, USA) according to manufacturer’s instructions. After 24 h of transfection, the cells were washed properly and replaced with fresh medium. The cells were then treated with 20 μM conjugate for 24 h, and finally protein lysates were prepared on completion of treatment. The levels of p-Akt, p-ERK and cleaved caspase-3 expressions were detected by Western blot analysis.
Figure 5 Differential role of PI3K/Akt and MAPK/ERK pathways in conjugate induced apoptosis of prostate cancer cells. Effects of siRNA mediated silencing of Akt and ERK on conjugate-induced apoptosis of (A) PC-3 and (B) LNCaP cells. LNCaP and PC-3 PCa cells were transfected with siRNAs (at a final concentration of 100 nM) using polyfect transfection reagent. After 24 h of transfection the cells were treated with 20 μM conjugate and allowed to grow for another 24 h. The cell lysates were prepared and the level of p-Akt, p-ERK and cleaved caspase-3 proteins were detected by immunoblot analysis. The histogram on the right panel of each figure represents densitometric analyses of the image data and expressed as percent of control where the results are mean ± SEM of three independent experiments. *and # represents statistically significant difference with respect to control and 20 μM conjugate treated groups respectively at p<0.05.

How did the “reduction of DHT induced AR transcription” value (“reduction” below) ([1]; 10 μM) turn out when `COc1cc(/C=C/c2ccc(O)c(/C=N/NC(N)=S)c2)cc(OC)c1` [conjugate, Pterostilbene-isothiocyanate conjugate] was run?
The value was “about 1.2 fold”.

And the “reduction” value ([1]; 20 μM)?
Its value is ~1.3 fold.

What about the “reduction” value ([1]; 40 μM) of the same compound?
The value was ~1.4 fold.

And the “effect on expression of AR gene” value ([1]; below 40 μM, absence of 10 nM DHT, RT-PCR)?
The value was “no significant effects”.

What about the “increase in cleaved caspase-3 protein expression vs control” value ([2]; PC-3, 20 μM conjugate alone, 24 h) of the same compound?
Its value is 3.7 folds.

What about the “increase in cleaved caspase-3 protein expression vs control” value ([2]; PC-3, 20 μM conjugate in presence of Akt siRNA) of the same compound?
The value was 4.8 folds.

What about the “increase in expression of caspase-3 vs control” value ([2]; PC-3, 20 μM conjugate in presence of ERK siRNA) of the same compound?
The value was 3.9 folds.
